From publication PMC9686989, “Exploration of Molecular Structure, DFT Calculations, and Antioxidant Activity of a Hydrazone Derivative” (Antioxidants, 2022) come the findings set out here.

A short description of data set [1]: DPPH radical scavenging assay. The note with it: DPPH in methanol, 30 min in the dark, absorbance at 517 nm, triplicate. Here is the method:
(§1) The antioxidant activity of compound 2 was measured using ABTS antioxidant assay and DPPH radical scavenging assay using ascorbic acid and quercetin as standard compounds. The antioxidant activity of compound 1 was not determined here, as it was isolated as a by-product in trace amounts. Furthermore, this compound is reported, and thus, it was believed unnecessary to pursue its antioxidant capacity.
The 100 µM DPPH stock solution was prepared in absolute methanol. The 2.0 mM stock solutions of compound 2 and the reference standards ascorbic acids and quercetin were also prepared in absolute methanol. Then, these solutions were diluted with methanol to 1000, 500, 250, 100, 50, 25, 12.5, 6.25, 3.13, 1.56, 0.781, 0.391, 0.195, 0.0977, 0.0488, 0.0244, and 0.0122 µM solutions. Afterwards, 0.7 mL of the DPPH solution and 0.7 mL of solutions of compound 2 or standard materials prepared above were mixed in a test tube and kept in the dark for 30 min. After 30 min incubation, the UV absorption at 517 nm was measured. All experiments were performed in triplicate. The radical scavenging rates were obtained from these UV absorption data, and the resulting IC50 values were calculated using Origin 8. Percentage (%) of DPPH radical scavenging = [(A0 − A1)/A0] × 100(2) where A0 was the absorbance of the control, and A1 was the absorbance of the treated sample.

Data set [2] can be described thus: ABTS antioxidant assay (radical scavenging). To be noted: radical cation ABTS•+ in methanol, 60 min in the dark, absorbance at 745 nm, triplicate. The method, then:
as §1
Equal amounts of 7 mM ABTS (2,2′-azino-bis(3-ethylbenzothiazoline-6-sulphonic acid)) stock solution and 2.45 mM potassium persulfate stock solution were mixed and stored at 0 °C for 12 h in the dark to produce the radical cation ABTS^•+. The prepared radical cation ABTS^•+ solution was diluted with methanol so that the UV absorption value was below 1.000 at 745 nm. The compound 2 and reference standards, including ascorbic acid and quercetin, were dissolved in methanol to obtain 2000 µM stock solutions. Then, these solutions were diluted with methanol to 1000, 500, 250, 125, 62.5, 31.3, 15.6, 7.81, 3.91, 1.95, 0.977, 0.488, 0.244, 0.122, and 0.0610 µM solutions. Then, 0.9 mL of the ABTS^•+ solution and 0.1 mL of solutions of compound 2 or standard materials prepared above were mixed in a test tube and kept in the dark for 60 min. After 60 min incubation, the UV absorption at 745 nm was measured. All experiments were performed in triplicate. The radical scavenging rates were obtained from these UV absorption data, and the resulting IC50 values were calculated using Origin 8 (Northampton, MA, USA). Percentage (%) of ABTS radical scavenging = [(A0 − A1)/A0] × 100(1) where A0 was the absorbance of the control, and A1 was the absorbance of the treated sample.

The next data set has as its system A549 cells. Briefly: Cell cytotoxicity assay (MTT). The data set is classed as cell-based. The method, then:
The A549 cells ([…]) were used in the cytotoxicity assay (MTT (3-(4,5-dimethylthiazol-2-yl)-2,5-diphenyltetrazolium bromide) assay) of compound 2. The A549 cells were grown in an incubator at 37 °C and 5% CO2 using DMEM media containing 2 mM glutamine and 10% FBS. Cells were trypsinized for seeding at 70–90% of cell confluency. About 7000 A549 cells per well were seeded in 96-well plates and incubated for 24 h at 37 °C in the presence of 5% CO2. Then, the media was replaced with the media containing compound 2 at various concentrations, including 0.1, 10, 25, and 50 µM, and incubated for another 24 h. Dimethyl sulfoxide (DMSO) was used as a vehicle. […] After 24 h incubation, the media was replaced with 200 µL of fresh media containing MTT solution and incubated for four hours at 37 °C. The absorbance was recorded at 570 nm to evaluate the cell viability. Each experiment was executed three times. Origin software was used for the data analysis.

Each structure is given as a SMILES string.

As to `O=c1c(O)c(-c2ccc(O)c(O)c2)oc2cc(O)cc(O)c12` [Quercetin, quercetin], the results for the concentration for half-maximal inhibition (IC50) in data set [1] and in data set [2] were 4.02 ± 0.058 µM and 3.57 ± 0.54 µM, respectively.

As for `C/C(=N\N=C(/C)c1ccc(O)cc1O)c1ccc(O)cc1O` [Compound 2, 4,4′-((1E,1′E)-hydrazine-1,2-diylidenebis(ethan-1-yl-1-ylidene))bis(benzene-1,3-diol)], the figures for the IC50 in data set [1] and in data set [2] were 81.06 ± 0.72 µM and 4.3 ± 0.21 µM, respectively. In addition, the “decrease in cell growth compared to the control” value in the data set with A549 cells (24 h treatment, 50 µM, MTT, DMSO control) is ~40%. For the same molecule, in the data set with A549 cells (24 h treatment, 0.1–25 µM, MTT, DMSO control), the “cytotoxicity (cell death)” value was “did not show significant cell death”. Further, in the data set with A549 cells (at 25 µM), the cell cytotoxicity result is listed as “did not show any cell cytotoxicity”. For the same molecule, in the data set on A549 cells (below 25 µM), the cytotoxicity result was “almost no cytotoxicity”.

`O=C1O[C@H]([C@@H](O)CO)C(O)=C1O` [Ascorbic acid, ascorbic acid]: the concentration for half-maximal inhibition (IC50) stood at 28.7 ± 0.65 µM in data set [1] and 13.2 ± 0.45 µM in data set [2].
